Usually IC50 stands for the concentration that inhibits the measured activity by half.

The text below walks through data of patent US10414740B2, “Glutaminase inhibitors and method of use” (Agios Pharmaceuticals, Inc., priority 2012, dated 2019).

Each structure is given as a SMILES string. Bounds are passed on as bounds.

This assay concerns the target T1, glutaminase (GAC) (Homo sapiens, UniProt O94925).
T1 sequence (O94925 55-598 isoform O94925-3 limits assumed): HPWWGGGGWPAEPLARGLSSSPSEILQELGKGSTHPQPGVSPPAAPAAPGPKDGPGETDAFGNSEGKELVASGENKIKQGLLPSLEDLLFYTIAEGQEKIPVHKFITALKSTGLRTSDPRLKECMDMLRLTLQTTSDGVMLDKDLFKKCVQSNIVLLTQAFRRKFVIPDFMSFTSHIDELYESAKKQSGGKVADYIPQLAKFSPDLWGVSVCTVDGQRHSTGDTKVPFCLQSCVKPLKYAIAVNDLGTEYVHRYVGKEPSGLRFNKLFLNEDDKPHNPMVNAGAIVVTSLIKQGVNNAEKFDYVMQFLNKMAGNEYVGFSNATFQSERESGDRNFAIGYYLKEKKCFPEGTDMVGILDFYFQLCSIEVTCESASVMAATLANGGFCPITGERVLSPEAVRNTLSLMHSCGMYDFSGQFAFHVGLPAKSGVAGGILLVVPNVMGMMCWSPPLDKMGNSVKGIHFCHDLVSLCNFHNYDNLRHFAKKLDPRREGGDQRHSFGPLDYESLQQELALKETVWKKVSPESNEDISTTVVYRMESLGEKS
The experiment in a line: glutaminase coupled endpoint assay (Example A). In kind it is biochemical. To be noted: inhibition of glutaminase; IC50 tested in an assay of Example A or Example B. The procedure: In this example, the enzymatic activity of glutaminase is measured through a coupled endpoint assay. […] The glutamate produced is converted to 2-OG by a kinetic excess of glutamate dehydrogenase. […] However, a kinetic excess of the third coupling enzyme, diaphorase, recycles NAD from NADH to keep the NAD concentration constant during the timecourse of the assay. Diaphorase, also supplied in kinetic excess, oxidizes NADH produced by GDH back to NAD with the concomitant reduction of rezasurin to the highly fluorescent resorufin. […] A reduction in the signal indicates inhibition of some component of the coupled enzyme system. Prospective hits are counterscreened against GDH/diaphorase alone to remove hits to the coupling enzyme system in a second assay.
2. […] Add 1 μl a compound in 100% DMSO 2. Add 40 μl of Enzyme Mix and incubate for 60 minute at room temperature 3. Add 10 μl of Substrate Mix to start reaction 4.
For the compound `CC(C)(C)OC(=O)Nc1nnc(CCS(=O)(=O)CCc2nnc(NC(=O)OC(C)(C)C)s2)s1` [Compound 15, Di-tert-butyl (5,5′-(sulfonylbis(ethane-2,1-diyl))bis(1,3,4-thiadiazole-5,2-diyl))dicarbamate], the IC50 was 100 to 500 nM.

The compound `COc1ccc(CC(=O)Nc2nnc(CCS(=O)(=O)CCc3nnc(NC(=O)Cc4ccc(OC)c(OC)c4)s3)s2)cc1OC` [Compound 30, N,N′-(5,5′-(2,2′-sulfonylbis(ethane-2,1-diyl))bis(1,3,4-thiadiazole-5,2-diyl))bis(2-(3,4-dimethoxyphenyl)acetamide)] had an IC50 of less than 100 nM.

The compound `O=C(Cc1ccccc1)Nc1nnc(CCCSCc2nnc(NC(=O)Cc3ccccc3)s2)s1` [Compound 6, 2-Phenyl-N-(5-(3-(((5-(2-phenylacetamido)-1,3,4-thiadiazol-2-yl)methyl)thio)propyl)-1,3,4-thiadiazol-2-yl)acetamide] displayed an IC50 of 500 to 1000 nM.

As for `CCOC(=O)CCC(=O)Nc1nnc(CCCCc2nnc(NC(=O)CCC(=O)OCC)s2)s1` [Compound 66, Diethyl 4,4′-(5,5′-(butane-1,4-diyl)bis(1,3,4-thiadiazole-5,2-diyl))bis(azanediyl)bis(4-oxobutanoate)], the half-inhibitory concentration (IC50) was in the range of 100 to 500 nM.

Compound `O=C(Cc1c[nH]c2ccncc12)Nc1nnc(CCCCc2nnc(NC(=O)Cc3c[nH]c4ccncc34)s2)s1` [Compound 124, N,N′-(5,5′-(butane-1,4-diyl)bis(1,3,4-thiadiazole-5,2-diyl))bis(2-(1H-pyrrolo[3,2-c]pyridin-3-yl)acetamide)] came in with an IC50 of less than 100 nM.

In turn, `O=C(Cc1ccccc1)Nc1nnc(CCS(=O)(=O)Cc2nnc(NC(=O)Cc3ccccc3)s2)s1` [Compound 56] gave an IC50 of 100 to 500 nM.

Compound `O=C(Nc1nnc(CCS(=O)(=O)CCc2nnc(NC(=O)OCc3ccccc3)s2)s1)OCc1ccccc1` [Compound 19, Dibenzyl (5,5′-(sulfonylbis(ethane-2,1-diyl))bis(1,3,4-thiadiazole-5,2-diyl))dicarbamate] came in with an IC50 of less than 100 nM.

The compound `COc1ccc2[nH]cc(CC(=O)Nc3nnc(CCCCc4nnc(NC(C)=O)s4)s3)c2c1` [Compound 129] gave an IC50 of less than 100 nM.

With `c1ccc(CCNc2nnc(CCSCCc3nnc(NCCc4ccccc4)s3)s2)cc1` [Compound 9, 5,5′-(thiobis(ethane-2,1-diyl))bis(N-phenethyl-1,3,4-thiadiazol-2-amine)], the 50% inhibitory concentration (IC50) lay in the range of 1000 to 10000 nM.

Compound `Cc1ccccc1CC(=O)Nc1nnc(CCCCc2nnc(NC(=O)Cc3ccccc3C)s2)s1` [Compound 114, N,N′-(5,5′-(butane-1,4-diyl)bis(1,3,4-thiadiazole-5,2-diyl))bis(2-o-tolylacetamide)] registered a concentration for half-maximal inhibition (IC50) of 100 to 500 nM.

For the compound `COc1ccc(CCCC(=O)Nc2nnc(CCCCc3nnc(NC(=O)CCCc4ccc(OC)cc4)s3)s2)cc1` [Compound 75, N,N′-(5,5′-(butane-1,4-diyl)bis(1,3,4-thiadiazole-5,2-diyl))bis(4-(4-methoxyphenyl)butanamide)], the IC50 was in the range of 100 to 500 nM.

`O=C(Cc1nn[nH]n1)Nc1nnc(CCCCc2nnc(NC(=O)Cc3nn[nH]n3)s2)s1` [Compound 71, N,N′-(5,5′-(butane-1,4-diyl)bis(1,3,4-thiadiazole-5,2-diyl))bis(2-(1H-tetrazol-5-yl)acetamide)] gave an IC50 of 100 to 500 nM.

`CC(=O)NCCC(=O)Nc1nnc(CCCCc2nnc(NC(=O)CCNC(C)=O)s2)s1` [Compound 68] displayed a half-maximal inhibitory concentration (IC50) of 1000 to 10000 nM.

On to `O=C(CCC(=O)c1ccccc1)Nc1nnc(CCCCc2nnc(NC(=O)CCC(=O)c3ccccc3)s2)s1` [Compound 112, N,N′-(5,5′-(butane-1,4-diyl)bis(1,3,4-thiadiazole-5,2-diyl))bis(4-oxo-4-phenylbutanamide)], for which the 50% inhibitory concentration (IC50) lay in the range of 100 to 500 nM.

`COc1cc(CCC(=O)Nc2nnc(CCCCc3nnc(NC(=O)CCc4cc(OC)c(OC)c(OC)c4)s3)s2)cc(OC)c1OC` [Compound 101, N,N′-(5,5′-(butane-1,4-diyl)bis(1,3,4-thiadiazole-5,2-diyl))bis(3-(3,4,5-trimethoxyphenyl)propanamide)] returned a concentration for half-maximal inhibition (IC50) of 500 to 1000 nM.

The compound `O=C(Cc1ccccn1)Nc1nnc(CCC(O)CCc2nnc(NC(=O)Cc3ccccn3)s2)s1` [Compound 108] returned a half-maximal inhibitory concentration (IC50) of 1000 to 10000 nM.

Turning to `O=C(C/C=C/c1ccccc1)Nc1nnc(CCCCc2nnc(NC(=O)C/C=C/c3ccccc3)s2)s1` [Compound 81, (3E,3′E)-N,N′-(5,5′-(butane-1,4-diyl)bis(1,3,4-thiadiazole-5,2-diyl))bis(4-phenylbut-3-enamide)], the IC50 lay within 100 to 500 nM.

With `COc1ccc2[nH]cc(CC(=O)Nc3nnc(CCCCc4nnc(NC(=O)Cc5c[nH]c6ccc(OC)cc56)s4)s3)c2c1` [Compound 61, N,N′-(5,5′-(butane-1,4-diyl)bis(1,3,4-thiadiazole-5,2-diyl))bis(2-(5-methoxy-1H-indol-3-yl)acetamide)], the 50% inhibitory concentration (IC50) is less than 100 nM.

In the case of `O=C(Cc1ccccn1)Nc1nnc(CCCCCCc2nnc(NC(=O)Cc3ccccn3)s2)s1` [Compound 16, N,N′-(5,5′-(hexane-1,6-diyl)bis(1,3,4-thiadiazole-5,2-diyl))bis(2-(pyridin-2-yl)acetamide)], the IC50 was 1000 to 10000 nM.

On to `O=C(Cc1cccnc1)Nc1nnc(CCCCc2nnc(NC(=O)Cc3cccnc3)s2)s1` [Compound 28, N,N′-(5,5′-(butane-1,4-diyl)bis(1,3,4-thiadiazole-5,2-diyl))bis(2-(pyridin-3-yl)acetamide)], for which the IC50 was less than 100 nM.

In turn, `O=C(Cc1ccccn1)Nc1nnc(CC/C=C/CCc2nnc(NC(=O)Cc3ccccn3)s2)s1` [Compound 25] gave a half-maximal inhibitory concentration (IC50) of 1000 to 10000 nM.

`O=C(Cc1ccc(F)c(F)c1)Nc1nnc(CCCCc2nnc(NC(=O)Cc3ccc(F)c(F)c3)s2)s1` [Compound 83, N,N′-(5,5′-(butane-1,4-diyl)bis(1,3,4-thiadiazole-5,2-diyl))bis(2-(3,4-difluorophenyl)acetamide)] registered a concentration for half-maximal inhibition (IC50) of less than 100 nM.

`O=C(Nc1nnc(CCCCc2nnc(NC(=O)C3CCCC3)s2)s1)C1CCCC1` [Compound 95, N,N′-(5,5′-(butane-1,4-diyl)bis(1,3,4-thiadiazole-5,2-diyl))dicyclopentanecarboxamide] showed a half-maximal inhibitory concentration (IC50) of 500 to 1000 nM.

`O=C(CCc1cccnc1)Nc1nnc(CCS(=O)(=O)CCc2nnc(NC(=O)CCc3cccnc3)s2)s1` [Compound 35] had a half-maximal inhibitory concentration (IC50) of 100 to 500 nM.

The compound `CN(CC(=O)Nc1nnc(CCCCc2nnc(NC(=O)CN(C)C(=O)OC(C)(C)C)s2)s1)C(=O)OC(C)(C)C` [Compound 46, Di-tert-butyl 2,2′-(5,5′-(butane-1,4-diyl)bis(1,3,4-thiadiazole-5,2-diyl))bis(azanediyl)bis(2-oxoethane-2,1-diyl)bis(methylcarbamate)] displayed a 50% inhibitory concentration (IC50) of 100 to 500 nM.

The compound `COc1ccc(CC(=O)Nc2nnc(CCCCc3nnc(NC(=O)Cc4ccc(OC)cc4OC)s3)s2)c(OC)c1` [Compound 119, N,N′-(5,5′-(butane-1,4-diyl)bis(1,3,4-thiadiazole-5,2-diyl))bis(2-(2,4-dimethoxyphenyl)acetamide)] had a half-inhibitory concentration (IC50) of less than 100 nM.

`NCCOc1ccc(CC(=O)Nc2nnc(CCS(=O)(=O)CCc3nnc(NC(=O)Cc4ccccc4)s3)s2)cc1` [Compound 29, 2-(4-(2-aminoethoxy)phenyl)-N-(5-(2-((2-(5-(2-phenylacetamido)-1,3,4-thiadiazol-2-yl)ethyl)sulfonyl)ethyl)-1,3,4-thiadiazol-2-yl)acetamide]: the IC50 was less than 100 nM.

In turn, `NCCCOc1ccc(CC(=O)Nc2nnc(CCS(=O)(=O)CCc3nnc(NC(=O)Cc4ccccc4)s3)s2)cc1` [Compound 36, 2-(4-(3-aminopropoxy)phenyl)-N-(5-(2-((2-(5-(2-phenylacetamido)-1,3,4-thiadiazol-2-yl)ethyl)sulfonyl)ethyl)-1,3,4-thiadiazol-2-yl)acetamide] showed a concentration for half-maximal inhibition (IC50) of less than 100 nM.

Consider `O=C(Cc1cccc(C(F)(F)F)c1F)Nc1nnc(CCCCc2nnc(NC(=O)Cc3cccc(C(F)(F)F)c3F)s2)s1` [Compound 92], for which the IC50 fell in the range of 1000 to 10000 nM.

Turning to `O=C(Cc1ccc(O)cc1)Nc1nnc(CCCCc2nnc(NC(=O)Cc3ccc(O)cc3)s2)s1` [Compound 38, N,N′-(5,5′-(butane-1,4-diyl)bis(1,3,4-thiadiazole-5,2-diyl))bis(2-(4-hydroxyphenyl)acetamide)], the 50% inhibitory concentration (IC50) was in the range of 100 to 500 nM.

`CC(=O)CCCCC(=O)Nc1nnc(CCCCc2nnc(NC(=O)CCCCC(C)=O)s2)s1` [Compound 72, N,N′-(5,5′-(butane-1,4-diyl)bis(1,3,4-thiadiazole-5,2-diyl))bis(6-oxoheptanamide)] had an IC50 of 100 to 500 nM.

Consider `O=C(Nc1nnc(CCCCc2nnc(NC(=O)C3CC3)s2)s1)C1CC1` [Compound 105], for which the half-maximal inhibitory concentration (IC50) was 1000 to 10000 nM.

Take `CC(C)c1ccc(OCC(=O)Nc2nnc(CCCCc3nnc(NC(=O)COc4ccc(C(C)C)cc4)s3)s2)cc1` [Compound 79]: the half-inhibitory concentration (IC50) was 1000 to 10000 nM.
